The values below come from PMC12909347, “Disconnect between in vitro and in vivo efficacy of the MPS1 inhibitor NTRC 0066-0 against glioblastoma” (Cellular Oncology, 2026).

Data set [1] has as its system orthotopic E98 GBM tumors. In words: Orthotopic E98 GBM xenograft efficacy in Abcb1a/b;Abcg2-/- mice. Format: in vivo. The method, then:
Orthotopic GBM tumors were induced in Abcb1a/b; Abcg2^−/− mice by stereotactic injection of E98 cells expressing firefly luciferase (200,000 cells in 2 µL HBSS (Life Technologies) at an injection speed of 1 µL/min) at 2 mm lateral, 1 mm anterior and 3 mm ventral to the bregma. Tumor growth was monitored using bioluminescence imaging by injecting D-luciferin (150 mg/kg i.p.; Promega, Madison, WI) and subsequently imaging mice on an IVIS Spectrum Imaging System (PerkinElmer, Waltham, MA). Survival was monitored daily and the humane endpoint was defined as body weight loss exceeding 20%. Time-to-recurrence was defined as the number of days elapsed until the tumor regained its pre-treatment size. Tumors were treated with CT-guided radiotherapy (2–3.5 Gy per fraction) using an X-RAD 225Cx system (Precision X-Ray, North Branford, CT), temozolomide (10 mg/kg p.o. freshly prepared from powder in an aqueous solution containing 10% v/v ethanol), NTRC0066-0 (20, 10 or 5 mg/kg p.o. in an aqueous solution containing 10% v/v DMSO and 10% v/v Cremophor EL (Life Technologies)) or different combinations thereof, as described per experiment in the Figure legends.

A further data set concerns the target T1, BCRP (Mus musculus, UniProt Q7TMS5).
T1 construct: from tissue; host or cells: blood-brain barrier / brain of FVB mice (WT versus Abcg2-/-)
T1 sequence (Q7TMS5 1-657): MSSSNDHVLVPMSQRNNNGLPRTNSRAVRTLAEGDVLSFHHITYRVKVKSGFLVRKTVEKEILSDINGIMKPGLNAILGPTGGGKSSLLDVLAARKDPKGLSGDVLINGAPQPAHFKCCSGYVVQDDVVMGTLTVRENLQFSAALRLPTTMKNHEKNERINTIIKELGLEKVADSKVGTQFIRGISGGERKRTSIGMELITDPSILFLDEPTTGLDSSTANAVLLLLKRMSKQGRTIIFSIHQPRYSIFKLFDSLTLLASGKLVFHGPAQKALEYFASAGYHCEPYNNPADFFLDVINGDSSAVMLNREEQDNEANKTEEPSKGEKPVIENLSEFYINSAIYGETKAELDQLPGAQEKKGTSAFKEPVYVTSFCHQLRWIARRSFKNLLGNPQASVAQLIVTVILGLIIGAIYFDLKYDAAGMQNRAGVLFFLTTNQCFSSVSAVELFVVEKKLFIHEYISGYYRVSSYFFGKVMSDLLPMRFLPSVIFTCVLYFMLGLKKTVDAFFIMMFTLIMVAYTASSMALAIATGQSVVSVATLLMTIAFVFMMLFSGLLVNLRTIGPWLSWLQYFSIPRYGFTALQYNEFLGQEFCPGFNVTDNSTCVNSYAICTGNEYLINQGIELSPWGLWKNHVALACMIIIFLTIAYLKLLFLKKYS
In words: Brain penetration in Abcg2-/- mice. Format: in vivo. The note with it: 1 h after 5 mg/kg i.v. How it is done:
The pharmacokinetics of NTRC 0066-0 were analyzed in wild-type (WT), Abcb1a/b^−/−, Abcg2^−/−, Abcb1a/b^−/−;Abcg2^−/− and Abcb1a/b^−/−;Abcg2^−/−;Abcc4^−/− FVB mice. All knockout mice strains have been developed at the Netherlands Cancer Institute. For i.v. administration, NTRC0066-0 was formulated in DMSO: Cremophor EL: saline (1:1:8 v/v) and injected at a dose of 5 mg/kg. For i.p and oral administration, NTRC0066-0 was administered at 5, 10 or 20 mg/kg as indicated. Serial blood sampling was done by tail vein bleeding at specific time points. At terminal time points, blood was drawn by cardiac puncture followed by tissue collection. Plasma was obtained from whole blood by centrifugation (5 min, 5,000 rpm, 4 °C) and tissues were weighed and homogenized using a FastPrep®-24 (MP-Biomedicals, NY) in 1% (w/v) bovine serum albumin (Sigma-Aldrich) in water.
NTRC 0066-0 was extracted from in vitro and in vivo samples using liquid–liquid extraction with diethyl ether. Another MPS-1 inhibitor, Compound 5 (Cpd-5), was added to the samples as an internal standard. The dried organic phase was reconstituted in 30% methanol in water (v/v). Samples were measured using an LC-MS/MS system comprising an UltiMate 3000 LC Systems (Dionex, Sunnyvale, CA) and an API 4000 mass spectrometer (Sciex, Framingham, MA). […]

For data set [2], the system named is orthotopic E98 GBM tumors. In words: Quantification of mitotic errors in E98 tumors. Format: in vivo, mice. The note with it: end-stage E98 tumors, 5/10 mg/kg b.i.d.x7d. The method, then:
Tumor-bearing mouse brains were formalin-fixed, paraffin-embedded and coronal Sect. (10 μm) were sliced using an RM2255 microtome (Leica, Wetzlar, Germany). Sections were subsequently deparaffinized using xylene, incubated in citrate buffer for antigen retrieval, blocked with 4% (w/v) BSA in TBS-T, incubated with rabbit-α-pH3^Ser10 (1:250 for 3 h at room temperature; Merck Millipore, Burlington, MA), incubated with goat-α-rabbit-AF568 (1:250 for 45 min at room temperature; Thermo Fisher Scientific, Waltham, MA) and mounted with Vectashield hardset antifade mounting medium with DAPI (Vector Laboratories, Burlingame, CA). Mitotic errors were imaged and scored using a Deltavision ultra high resolution microscope (Applied Precision Inc., Issaquah, WA).

A further data set has as its system P-gp. Also on record: method as in PMID 26153498. The note with it: calcein-AM efflux assay; cited from earlier work.
Setting [3] is: E98 tumors, 5/10 mg/kg b.i.d.x7d monotherapy.
Where [4] appears, read: adjuvant: 5/10 mg/kg b.i.d.x7d after RT + TMZ vs RT + TMZ alone.
Where [5] appears, read: recurrent E98 tumors after TMZ + RT, 20 mg/kg q.2d.x11d second-line.
Setting [6] is: therapy-naive E98 tumors, 20 mg/kg q.2d.x11d monotherapy.

As for `CCc1cccc(CC)c1NC(=O)c1ccn2c1CCc1cnc(Nc3ccc(N4CCN(C)CC4)cc3OC)nc1-2` [NTRC 0066-0], the Survival entry in data set [1] (setting [3]) was “did not observe any delay in tumor growth (Fig. 4H) or survival”; in data set [1] (setting [4]), “not affected”; in data set [1] (setting [6]), “did not result in reduced tumor growth (Fig. 4A) or improved survival”. The values for the Tumor growth entry in data set [1] (setting [3]), in data set [1] (adjuvant: 5/10 mg/kg b.i.d.x7d from day 3 after RT + TMZ (2 Gy + 10 mg/kg q.d.x2d) vs RT + TMZ alone) and in data set [1] (setting [6]) were “did not observe any delay in tumor growth”, “could not observe any effects on tumor growth” and “did not result in reduced tumor growth”, respectively. Further, the Time-to-recurrence entry in data set [1] (setting [4]) is “not different between treatment groups”. In addition, the “Animals with tumor growth delay” value in data set [1] (setting [5]) is 2 out of 7. The Long-term survivors result in data set [1] (setting [5]) is “one long-term survivor”. The “Plasma and brain concentrations compared to WT mice” value on BCRP is reported as “no differences”. For the same compound, in data set [2], the “Number of mitotic errors in tumors” value is “did not increase the number of mitotic errors”. Moreover, in the data set with P-gp, the “Inhibition of P-gp activity” value was “does not inhibit the activity of P-gp”.
